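Where inhibition never reached the appropriate level, the endpoint shown equals the highest concentration tested. Otherwise, values were interpolated linearly from a five-concentration, 48-hour dose response in 96-well plates. GI50 = concentration required for 50% inhibition of growth.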 The source made the active and inactive calls. Cut-off read from the data, not from the text of the source: active = GI50 up to about 1.1 µM and inactive = higher.
Tests used:
Assay in all cases: NCI-60 cell line screen, 48 h
ACHN = system: ACHN
A498 = system: A498
U-251 = system: U-251
SNB-78 = system: SNB-78
RPMI-8226 = system: RPMI-8226
NCI-H23 = system: NCI-H23
KM-20L2 = system: KM-20L2
A549 = system: A549
SF-539 = system: SF-539
M14 = system: M14
OVCAR-4 = system: OVCAR-4
SK-MEL-28 = system: SK-MEL-28
HCC 2998 = system: HCC 2998
786-0 = system: 786-0
MDA-MB-231 = system: MDA-MB-231
PC-3 = system: PC-3
HOP-92 = system: HOP-92
Hs-578T = system: Hs-578T
SR = system: SR
SN12C = system: SN12C

Measured: GI50

O=C1CC(c2c[nH]c3ccccc23)C(=O)N1 (stereo not drawn)
inactive: ACHN > 100 µM | A498 > 100 µM | U-251 > 100 µM | SNB-78 > 100 µM | RPMI-8226 > 100 µM | NCI-H23 > 100 µM | KM-20L2 > 100 µM | A549 > 100 µM | SF-539 > 100 µM | M14 > 100 µM | OVCAR-4 > 100 µM | SK-MEL-28 > 100 µM | HCC 2998 > 100 µM | 786-0 > 100 µM

COC(=O)C1Cc2cc3c(cc2C1)CCC3
inactive: ACHN > 100 µM | MDA-MB-231 > 100 µM | A498 > 100 µM | U-251 > 100 µM | PC-3 > 100 µM | RPMI-8226 > 100 µM | HOP-92 34 µM | NCI-H23 > 100 µM | Hs-578T > 100 µM | A549 > 100 µM | SF-539 > 100 µM | M14 > 100 µM | OVCAR-4 > 100 µM | SK-MEL-28 > 100 µM | SR > 100 µM | SN12C > 100 µM | HCC 2998 > 100 µM | 786-0 > 100 µM

COc1cccc2cc(C)c(C(=O)c3ccccc3)nc12
inactive: ACHN > 100 µM | U-251 > 100 µM | SNB-78 > 100 µM | RPMI-8226 > 100 µM | NCI-H23 > 100 µM | KM-20L2 > 100 µM | A549 > 100 µM | SF-539 > 100 µM | M14 > 100 µM | OVCAR-4 > 100 µM | SK-MEL-28 > 100 µM | SN12C > 100 µM | HCC 2998 > 100 µM | 786-0 > 100 µM

COc1ccc(NC(=O)CC/C(CC(=O)c2ccco2)=N/NC(=O)C(N)=O)cc1
inactive: ACHN > 100 µM | A498 76.4 µM | RPMI-8226 33.8 µM | NCI-H23 38.3 µM | KM-20L2 > 100 µM | A549 > 100 µM | SF-539 > 100 µM | M14 > 100 µM | OVCAR-4 > 100 µM | SK-MEL-28 91.2 µM | SN12C > 100 µM | HCC 2998 > 100 µM | 786-0 > 100 µM

CCOC(=O)CC1=Nc2ccccc2SC1
inactive: ACHN > 100 µM | A498 > 100 µM | U-251 > 100 µM | SNB-78 > 100 µM | HOP-92 > 100 µM | NCI-H23 > 100 µM | KM-20L2 > 100 µM | A549 > 100 µM | SF-539 > 100 µM | M14 > 100 µM | OVCAR-4 > 100 µM | SK-MEL-28 1.29 µM | SN12C > 100 µM | HCC 2998 > 100 µM | 786-0 > 100 µM

CNC(=O)CCC(NC(=O)OC(C)(C)C)C(=O)NC(Cc1ccc(NC(=O)CCCCC(C)=O)cc1)C(=O)NCC(=O)NC (stereo not drawn)
inactive: ACHN > 100 µM | MDA-MB-231 > 100 µM | A498 > 100 µM | U-251 > 100 µM | PC-3 > 100 µM | RPMI-8226 > 100 µM | HOP-92 > 100 µM | NCI-H23 > 100 µM | Hs-578T > 100 µM | A549 > 100 µM | SF-539 > 100 µM | M14 > 100 µM | OVCAR-4 > 100 µM | SK-MEL-28 > 100 µM | SR > 100 µM | SN12C > 100 µM | HCC 2998 > 100 µM | 786-0 > 100 µM

N/N=c1/nc2n(c3ncccc13)C=CNN2
inactive: ACHN > 100 µM | U-251 > 100 µM | RPMI-8226 > 100 µM | HOP-92 > 100 µM | NCI-H23 > 100 µM | KM-20L2 > 100 µM | A549 > 100 µM | SF-539 > 100 µM | SK-MEL-28 > 100 µM | SR > 100 µM | SN12C > 100 µM | HCC 2998 > 100 µM | 786-0 > 100 µM

COCC1C(=O)c2cc3c(cc2C12C=CC1(C=C2)OCCO1)OCO3 (stereo not drawn)
inactive: ACHN 12.7 µM | U-251 3.67 µM | RPMI-8226 1.43 µM | HOP-92 14.5 µM | NCI-H23 12.5 µM | KM-20L2 10.6 µM | A549 15.4 µM | SF-539 15.6 µM | M14 3.38 µM | OVCAR-4 14.2 µM | SK-MEL-28 14.5 µM | SR 1.82 µM | SN12C 10.9 µM | 786-0 2.13 µM

COC(=O)/C(C#N)=C1\CCC(Nc2cccc(C(F)(F)F)c2)N1C (stereo not drawn)
inactive: ACHN 61.8 µM | U-251 > 100 µM | SNB-78 > 100 µM | RPMI-8226 > 100 µM | NCI-H23 72.1 µM | KM-20L2 56 µM | A549 > 100 µM | SF-539 > 100 µM | M14 > 100 µM | OVCAR-4 > 100 µM | SK-MEL-28 > 100 µM | SN12C > 100 µM | HCC 2998 > 100 µM | 786-0 > 100 µM

From ChEMBL document CHEMBL1201862, “PubChem BioAssay data set” (2004)
